Article PMC6956804, “Potent antibacterial activity of MSI-1 derived from the magainin 2 peptide against drug-resistant bacteria” (Theranostics, 2020)
Like-named read-outs stand apart in the source and are kept apart here. Peptide text beside a SMILES is read from it.

How the values were obtained:
C57BL/6 mice = assay: Acute toxicity in mice; format: in vivo; conditions: intraperitoneal, n=6/group
Method: C57BL/6 mice (n=6/group) were intraperitoneally injected with MSI-1 (0, 10, 20, 40, 80 and 100 mg/kg/body weight, respectively). Animals were inspected for adverse effects for 30 min, and survival was monitored for 12 h thereafter. The toxicity severity was classified as Malik U et al previously described.

[1] = test system: E. coli (penicillin resistant, levofloxacin sensitive); assay: Resistance study, serial passages; format: cell-based; conditions: serial passages at 1/4× MIC; ratio of MIC to that of first-time exposure
Method: (§1) P. aeruginosa and E. coli, which were penicillin resistant but levofloxacin sensitive strains, were exposed to MSI-1, polymyxin and levofloxacin for MIC determination. Resistance study was performed as described previously.

[2] = test system: P. aeruginosa (penicillin resistant, levofloxacin sensitive); assay: Resistance study, serial passages; format: cell-based; conditions: serial passages at 1/4× MIC; ratio of MIC to that of first-time exposure
Method: as §1

Plasma stability = format: in vitro ADME, mouse; conditions: for antibacterial activities after plasma incubation: turbidimetry
Text: (§4) At indicated time points, samples were denatured with equal volumes of 6 M urea and subjected to HPLC analysis or antibacterial activity evaluation.

[3] = Calcein release from liposomes; conditions: 4× MIC
Method: (§2) E. coli were mixed with different concentrations of MSI-1, incubated for 2 h, resuspended by PI solution (20 μg/ml), and ultimately subjected to flow cytometry for PI uptake assay. Calcein-loaded liposomes were prepared to imitate bacterial membrane. Serially diluted peptide was added into liposomes (1:1, v:v) after obtaining the fluorescence intensity at λex/λem=490/520 nm. Once MSI-1 addition, fluorescence intensity was detected at 0, 3, 5, 10, 15 and 20 min. Calcein release rate was calculated as previously described. To observe bacterial morphology, E. coli treated with MSI-1 (32 μg/ml) or PBS for 2 h was collected, fixed by 2.5% glutaraldehyde and subjected to scanning electron microscopy (SEM) assay (SUI510, Hitachi, Japan). In addition, E. coli were resuspended in reaction buffer (60 mM Na2HPO4^. 7H2O, 40 mM NaH2PO4^. H2O, 10 mM KCl, 1 mM MgSO4.7H2O, 0.27% 2-Mercaptoethanol), incubated with ONPG (2.5 mg/ml) and MSI-1 for 2 h. Bacteria envelope integrity was calculated by the percentage of O-nitrophenol production.

G- and G+ bacteria = assay: Antimicrobial activity, summary over the strains; format: cell-based; conditions: MIC expressed in μM, compared with IC50 on eukaryotic cells
Method: A standard micro-broth serial dilution assay was used to measure MIC of peptides. MIC was obtained by a microplate reader at 600 nm. MBC was determined as previously described.

[4] = test system: penicillin resistant-E. coli isolates; assay: Acute systemic E. coli infection in mice; format: in vivo, BALB/c mice; conditions: for survival rate enhanced compared with the model group: doses 10, 5 and 2.5 mg/kg
Method: BALB/c mice (5-6 weeks) were purchased from the Laboratory Animal Center of Yangzhou University (Yangzhou, Jiangsu, China) and intraperitoneally (ip) injected with 500 μl (5× 10^8 CFU/ml) of penicillin resistant-E. coli isolates. Mice in MSI-1 treated groups (10, 5 and 2.5 mg/kg, n=16/group) and polymyxin treated group (5 mg/kg) were administered after 2 h post bacterial inoculation. After 12 h, six mice in each group were anesthetized with pentobarbital sodium (50 mg/kg body weight, i.p) and euthanized by cervical dislocation to count bacterial colonies in blood, lung, spleen, kidney and liver. Lung homogenates were collected for Gram staining. Moreover, serum TNF-α and IL-6 were measured by ELISA kits. The procedure of H&E staining for mouse lung was adapted from a published report. The survival and weight of other mice were monitored daily up to 7 days.

[5] = 20% fresh mouse serum, turbidimetry
Text: as §4

E. coli genomic DNA = assay: Gel retardation assay, DNA binding; conditions: 15 min, 1% agarose gel
Method: Bacterial genomic DNA was obtained by a BacteriaGen DNA Kit and quantified by a Thermo Scientific NanoDrop™ 2000c Spectrophotometer. Bacterial genomic DNA samples were incubated with isovolumetric MSI-1 at room temperature for 15 min. The gel retardation assay for DNA shift was performed by 1% w/v agarose gel (pre-stained by SYBR Green I) electrophoresis. In UV spectroscopic study, different concentrations of peptide were titrated into genomic DNA (0.5 μg/ml). After 15 min to equilibrate, the UV spectra for DNA and MSI-1-DNA complex were recorded at wavelength range of 230-350 nm. In addition, DNA dissolved in Tris-HCl (pH 7.4, CDNA=0.1 mg/ml) was mixed with EB solution (5 μM). After 10 min incubation in the dark, the EB-DNA mixture was added with different concentrations of MSI-1. Thirty minutes later, the fluorescence spectra were recorded at excitation wavelength 535 nm to measure the competitive binding of MSI-1 and EB with bacterial DNA. […] Secondary structure change of E. coli DNA was analyzed. Moreover, the intracellular changes in E. coli morphology was observed by a JEOL 1230 transmission electron microscopy (TEM) after 2 h coincubation with MSI-1.

[6] = test system: S. epidermidis (methicillin-resistant); assay: Time-killing assay; format: cell-based; conditions: 4× MIC, time-kill curve
Method: (§3) Bacteria were incubated with MSI-1, penicillin G sodium salt, vancomycin or methicillin at 4× MIC. Samples were removed at 0, 0.5, 1, 2, 4, and 8 h for bacterial counts.

[7] = test system: ndm-1-carrying recombinant E. coli; assay: Time-killing assay; format: cell-based; conditions: 4× MIC, time-kill curve
Method: as §3

E. coli = assay: PI uptake assay, flow cytometry; format: cell-based; conditions: 4× MIC, 2 h
Method: as §2

in vitro = conditions: mouse, 20% fresh mouse serum
Text: as §4

trypsin = assay: in vitro; conditions: pH 8.2
Text: Aliquots of the mixture were extracted periodically and diluted with water/acetonitrile (3:2, v:v) containing 2% TFA for HPLC detection or for antibacterial activity assay [18].

[8] = 37 °C for up to 7 days, multigelation at -80 °C for 10 times or boiling at 100 °C for 1 h; HPLC and antibacterial activity
Method: MSI-1 were placed at 37 °C for 7 days, repeated multigelation at -80 °C for 10 times or boiled at 100 °C for 1 h, and then subjected to HPLC analysis or antibacterial activity evaluation as above.

In the case of `CC[C@H](C)[C@H](NC(=O)CN)C(=O)N[C@@H](Cc1c[nH]c2ccccc12)C(=O)N[C@@H](CCCCN)C(=O)N[C@@H](Cc1ccccc1)C(=O)N[C@@H](CC(C)C)C(=O)N[C@@H](CCCCN)C(=O)N[C@@H](CCCCN)C(=O)N[C@@H](C)C(=O)N[C@@H](CCCCN)C(=O)N[C@@H](CCCCN)C(=O)N[C@@H](Cc1ccccc1)C(=O)N[C@@H](Cc1c[nH]c2ccccc12)C(=O)N[C@@H](CCCCN)C(N)=O` [MSI-1] (H-GIWKFLKKAKKFWK-NH2), the adverse events (C57BL/6 mice; 20 mg/kg) was “no immediate adverse events”, the “adverse effects at approximately 5 min post injection” value (C57BL/6 mice; dose of peptide above 40 mg/kg) was “one mouse in the MS-1-treated group exhibited narrowing of the eyes” and the “relative MIC after 15 subcultures” value [1] was “remained stable”. The “relative MIC after 15 subcultures” value [2] was “remained stable”, the remaining at 0.5 h, 1.6 mg/ml (Plasma stability; 20% fresh mouse plasma, 37 °C, 0.5 h, HPLC, read-out: remaining peptide) was about 77% and the remaining peptide (Plasma stability; 20% fresh mouse plasma, 37 °C, 2 h, HPLC) was about 67.5%. The “antibacterial activities after plasma incubation” value (Plasma stability; 20% fresh mouse plasma, 0.5 h) was 97.2%, the “antibacterial activities after plasma incubation” value (Plasma stability; 20% fresh mouse plasma, 2 h) was 60.7% and the bacteriostatic activity (Plasma stability; either mouse plasma or serum, post 2 h coincubation (summary in the discussion)) was “approximately 50%”. The remaining at 2 h, 1.6 mg/ml (Plasma stability; fresh mouse plasma or serum (one summary value for both), either mouse plasma or serum, post 2 h coincubation (summary in the discussion), read-out: remaining peptide) was 60%, the “leakage of Calcein” value [3] was “over 80%” and the “effective antimicrobial concentration in vitro” value (G- and G+ bacteria) was 4.4 to 8.8 µM. The “reduction in CFU (blood and organs)” value ([4]; 10 mg/kg, 12 h) was “approximately 2 log unit”, the “decreased rates of serum IL-6 and TNF-α” value ([4]; 10 mg/kg, 12 h post-infection, ELISA) was 70%~80% and the body weight ([4]; 7 days, polymyxin 5 mg/kg) was “marked weight maintenance effect”. The “survival rate enhanced compared with the model group” value ([4]; first of three values, given 2 h post inoculation, 7 days) was 80%, the “survival rate enhanced compared with the model group” value ([4]; second of three values, 7 days) was 50% and the “survival rate enhanced compared with the model group” value ([4]; third of three values, 7 days) was 30%. The “inhibition rate against bacteria after serum incubation” value ([5]; 0.5 h) was 76.8%, the “inhibition rate against bacteria after serum incubation” value ([5]; 2 h) was 46.9% and the “dose at which the peptide bound to genomic DNA” value (E. coli genomic DNA; 1/4× MIC) was 2 µg/mL. For the same molecule, the “peptide concentration at which electrophoretic movement of DNA was completely inhibited” value (E. coli genomic DNA) was “higher than 4 μg/ml”, the “reduction in CFU counts” value [6] was “approximately 5 log units” and the “time to thorough bacteria elimination” value [6] was at most 240 min. The “time to thorough elimination of the bacteria” value [7] was at most 4 h, the PI-positive rate (E. coli) was 80.4% and the remaining at 0.5 h, 1.6 mg/ml (in vitro) was 92.5%. For the same molecule, the remaining at 2 h, 1.6 mg/ml (in vitro) was 53.5%, the remaining at 0.5 h (trypsin) was under 10% and the thermal stability [8] was “maintained its structure and potent antimicrobial activity”.
